# In US20210315887A1, “METHODS OF ADMINISTERING THERAPY” (GALAPAGOS NV, priority 2018, published 2021):
# “Also recorded” adds a separate entry of the source. Where two headings read alike, the source gives them in different places.
# Experiment: Phase I open-label drug-drug interaction study: single-dose plasma pharmacokinetics of compound 1 before and after repeat doses of rifampicin
# Assay type: in vivo, human
# Conditions: for Mean maximal compound 1 plasma concentration: from mean concentration-time profile; for Cmax / AUC(0-t): po, 600 mg; for Cmax: healthy male subjects; for concentration at 24 h: read-out: C24h
# Experimental: A phase I, open-label, non-randomized, drug-drug interaction study in healthy male subjects is done to evaluate the impact of repeat doses of rifampicin, on the single-dose pharmacokinetics (PK) of compound 1 as well as to evaluate the safety and tolerability of a single dose of compound 1 administered before or after oral doses of rifampicin.
# Eighteen healthy male subjects received a single oral dose of 600 mg compound 1 on Day 1. From Days 2 to 11, 600 mg rifampicin was administered once daily (q.d.) to all subjects for 10 consecutive days. On Day 12, subjects received a single oral dose of 600 mg of compound 1 (see Table 1). A follow-up visit is conducted between days 15 and 18.
# On days 1, 2, 12, 13 (i.e. 1, 2, 3, 4, 5, 6, 7, 8, 12 and 24 hours post compound 1 administration on day 1 and day 12) and at the follow-up visit, blood samples for PK assessment of compound 1 are taken. Blood samples of 2 mL for the determination of compound 1 levels in plasma are collected by venipuncture (or indwelling catheter) in the arm, into vacuum tubes containing lithium heparin and are immediately chilled (ice bath).
# Within 30 min after blood collection, the plasma is separated by centrifugation at 4° C. for 10 min at circa 1,500 g and transferred into 2 polypropylene tubes with at least 400 μL of plasma in the first aliquot and the remaining volume in the second aliquot. After appropriate labeling, the plasma samples are stored in the clinical center at −20° C.±10° C. within 2 h following centrifugation and are protected from direct sunlight.
# Plasma concentrations were measured using validated liquid chromatography with tandem mass (LC/MS-MS) spectrometry methods with a limit of quantification of 1.00 ng/mL for compound 1, 20.0 mg/mL for cholesterol and 5.00 ng/mL for 4-β-hydroxycholesterol. Non-compartmental PK calculations are performed using Phoenix WinNonlin® (version 6.4).
# The following parameters are determined for compound 1 from individual concentration-time profiles in plasma: • Cmax: maximum observed plasma concentration • tmax: time of occurrence of Cmax • AUC0-t: area under the plasma concentration-time curve from time zero till the time corresponding with the last observed quantifiable concentration, calculated by the linear up-logarithmic down trapezoidal rule • AUC0-24h: area under the plasma concentration-time curve from time zero till 24 h post-dose, calculated by the linear up-logarithmic down trapezoidal rule • C24h: plasma concentration observed at 24 h post-dose
# Plasma concentrations and PK parameters of compound 1 are listed by day (Day 1: compound 1 before multiple rifampin doses; Day 12: compound 1 after multiple rifampin doses) for each subject. Descriptive statistics are calculated by day for the plasma concentration and PK parameters. Mean (±SE) concentration-time profiles are generated by day.
# A mixed-effects model with day as fixed effect and subject as random effect is performed on the following natural log (ln)-transformed PK parameters of compound 1: Cmax, C24h, AUC0-t, and AUC0-24h. […] The 90% confidence interval (CI) of the point estimate is calculated using the mean square error of the analysis of variance.
# As tmax is a discrete variable dependent on selected blood sampling times, day effect was assessed using a non-parametric test (Wilcoxon's signed-rank test).
# [1] = point estimate of least-squares geometric means ratio, Day 12 relative to Day 1
# [2] = rifampin 600 mg q.d. for 10 days, Day 12 vs Day 1
smiles,measurement,setting,value
CCc1nc2c(C)cc(N3CCN(CC(=O)N4CC(O)C4)CC3)cn2c1N(C)c1nc(-c2ccc(F)cc2)c(C#N)s1 [Compound 1],Time post-dose at which mean maximal concentration is attained,"Day 1, single 600 mg oral dose",2 h
same,Mean maximal compound 1 plasma concentration,"Day 1, single 600 mg oral dose","7,870 ng/mL"
same,Time post-dose at which mean maximal concentration is attained,"Day 12, after multiple rifampin doses",2 h
same,Mean maximal compound 1 plasma concentration,"Day 12, single 600 mg oral dose after rifampin 600 mg q.d. 10 days","1,180 ng/mL"
same,Impact of multiple rifampin intake on compound 1 clearance,Day 12 compared with Day 1,no impact
same,Impact of multiple rifampin intake on apparent rate of elimination of compound 1,"Day 12 compared with Day 1, visual inspection of profiles",no impact
same,Decrease of AUC0-24h by multiple rifampin intake,Day 12 vs Day 1,89.2%
same,Decrease of Cmax by multiple rifampin intake,Day 12 vs Day 1,83.2%
same,Bioavailability of compound 1 after multiple rifampin intake,"as shown by point estimates, Day 12 vs Day 1",markedly lower
same,Elimination of compound 1 (shape of log-linear mean concentration-time profile),before and after multiple rifampin intake,biphasic
same,Cmax,"male, human, plasma, single oral 600 mg compound 1, after multiple rifampin doses 600 mg q.d. 10 days (Day 12), N = 18, arithmetic mean",1440 ng/mL
same,Cmax,"male, human, plasma, single oral 600 mg compound 1, before multiple rifampin doses (Day 1), N = 18, arithmetic mean",8660 ng/mL
same,AUC(0-t),"male, human, plasma, single oral 600 mg, after multiple rifampin doses (Day 12), N = 17, arithmetic mean, read-out: AUC0-24h",3750 ng·h/mL
same,AUC(0-t),"male, human, plasma, single oral 600 mg, after multiple rifampin doses (Day 12), N = 18, arithmetic mean, read-out: AUC0-t",3570 ng·h/mL
same,AUC(0-t),"male, human, plasma, single oral 600 mg, before multiple rifampin doses (Day 1), N = 18, arithmetic mean, read-out: AUC0-24h",36300 ng·h/mL
same,AUC(0-t),"male, human, plasma, single oral 600 mg, before multiple rifampin doses (Day 1), N = 18, arithmetic mean, read-out: AUC0-t",36300 ng·h/mL
same,concentration at 24 h,"male, human, plasma, single oral 600 mg, after multiple rifampin doses (Day 12), N = 18, arithmetic mean",1.69 ng/mL
same,concentration at 24 h,"male, human, plasma, single oral 600 mg, before multiple rifampin doses (Day 1), N = 18, arithmetic mean",83.4 ng/mL
same,Tmax,"male, human, plasma, single oral 600 mg, before multiple rifampin doses (Day 1), N = 18, median",2 h
same,AUC0-24h Comparison (PE %),[1],10.75%
same,AUC0-t Comparison (PE %),[1],10.24%
same,C24h Comparison (PE %),[1],2.48%
same,Cmax Comparison (PE %),[1],16.78%
same,Decrease of AUC0-24h by multiple rifampin intake,[2],9.3 fold
same,Decrease of Cmax by multiple rifampin intake,[2],6.0 fold
same,Day effect (rifampin) on tmax,statistical analysis Day 12 vs Day 1,no significant effect; also recorded: no significant impact
